Data from US20250051347A1, “BIFUNCTIONAL CHIMERIC HETEROCYCLIC COMPOUND AND USE THEREOF AS ANDROGEN RECEPTOR DEGRADER” (Hinova Pharmaceuticals, Inc., priority 2021, published 2025).

How the values were obtained:
[1] = molecular target: T1, androgen receptor (AR) splicing variant AR-v7 (Homo sapiens, UniProt P10275); assay: Degradation activity on androgen receptor splicing variant AR-v7 in 22RV1 cells (ELISA); assay type: cell-based; settings: AR-v7 degradation in 22RV1 cells, 48 h, class symbols
T1 construct: The degradation activity of compounds on AR-v7 in 22RV1 cells; host or cells: 22RV1 cells
T1 sequence (P10275 1-644 isoform P10275-3): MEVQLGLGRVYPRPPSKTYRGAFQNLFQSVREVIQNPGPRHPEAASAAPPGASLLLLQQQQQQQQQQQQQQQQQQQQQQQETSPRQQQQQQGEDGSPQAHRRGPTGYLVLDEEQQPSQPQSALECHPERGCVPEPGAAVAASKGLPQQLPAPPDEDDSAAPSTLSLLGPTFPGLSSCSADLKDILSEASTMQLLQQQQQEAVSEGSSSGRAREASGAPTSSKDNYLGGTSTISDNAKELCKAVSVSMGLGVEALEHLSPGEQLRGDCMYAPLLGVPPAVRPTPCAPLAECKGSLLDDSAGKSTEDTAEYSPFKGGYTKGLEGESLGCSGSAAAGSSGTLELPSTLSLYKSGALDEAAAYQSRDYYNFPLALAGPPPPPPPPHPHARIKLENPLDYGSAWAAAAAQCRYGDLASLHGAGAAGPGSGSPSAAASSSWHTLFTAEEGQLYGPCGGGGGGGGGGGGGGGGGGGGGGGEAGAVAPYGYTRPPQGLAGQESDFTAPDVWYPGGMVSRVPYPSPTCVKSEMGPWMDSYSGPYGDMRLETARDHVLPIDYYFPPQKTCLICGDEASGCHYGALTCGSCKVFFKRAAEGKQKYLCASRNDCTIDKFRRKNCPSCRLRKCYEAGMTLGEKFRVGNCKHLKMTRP

[2] = Pharmacokinetics in mice (plasma exposure after oral administration); assay type: in vivo; settings: mouse, ICR mice, oral (i.g.) 3 mg/kg, read-out: After oral administration of 3 mg/kg, mouse plasma exposure AUCinf
22RV1 cells = settings: Homo sapiens, 22Rv1, 144 h, read-out: 22RV1 IC50 (nM), 22RV1 cells, 6 days culture, CCK-8, OD 450 nm

Compound	DC50 [1] [nM]	AUC(0-inf) [2] [ng·h/mL]	IC50 (22RV1 cells) [nM]
O=C1CCC(N2C(=O)c3ccc(N[C@H]4C[C@H](Oc5ccc(C6(c7ccc(OCc8ccnc(N9CC%10(COC%10)C9)n8)cc7)COC6)cc5)C4)cc3C2=O)C(=O)N1 (stereo partly drawn) [Example 355, 5-(((1r,3r)-3-(4-(3-(4-((2-(2-oxa-6-azaspiro[3.3]heptane-6-yl)pyrimidin-4-yl)methoxy)phenyl)oxetane-3-yl)phenoxy)cyclobutyl)amino)-2-(2,6-dioxopiperidin-3-yl)isoindolin-1,3-dione]	< 10	5000 to 30000	2
O=C1CCC(N2C(=O)c3ccc(N[C@H]4C[C@H](Oc5ccc(C6(c7ccc(OCc8ccnc(N9CC%10(COC%10)C9)n8)cc7)CCC6)cc5)C4)cc3C2=O)C(=O)N1 (stereo partly drawn) [Example 358, 5-(((1r,3r)-3-(4-(1-(4-((2-(2-oxa-6-azaspiro[3.3]heptane-6-yl)pyrimidin-4-yl)methoxy)phenyl)cyclobutyl)phenoxy)cyclobutyl)amino)-2-(2,6-dioxopiperidin-3-yl)isoindolin-1,3-dione]	< 10	1000 to 5000	9
O=C1CCC(N2C(=O)c3ccc(N[C@H]4C[C@@H](Oc5ccc(C6(c7ccc(OCc8ccnc(N9CC%10(COC%10)C9)n8)cc7)CCC6)cc5)C4)cc3C2=O)C(=O)N1 (stereo partly drawn) [Example 359, 5-(((1s,3s)-3-(4-(1-(4-((2-(2-oxa-6-azaspiro[3.3]heptane-6-yl)pyrimidin-4-yl)methoxy)phenyl)cyclobutyl)phenoxy)cyclobutyl)amino)-2-(2,6-dioxopiperidin-3-yl)isoindolin-1,3-dione]	< 10	1000 to 5000	6
O=C1CCC(N2C(=O)c3ccc(N[C@H]4C[C@H](Oc5ccc(C6(c7ccc(OCc8ccnc(N9CC%10(COC%10)C9)n8)cc7)CCCC6)cc5)C4)cc3C2=O)C(=O)N1 (stereo partly drawn) [Example 360, 5-(((1r,3r)-3-(4-(1-(4-((2-(2-oxa-6-azaspiro[3.3]heptane-6-yl)pyrimidin-4-yl)methoxy)phenyl)cyclopentyl)phenoxy)cyclobutyl)amino)-2-(2,6-dioxopiperidin-3-yl)isoindolin-1,3-dione]	< 10	1000 to 5000	4
O=C1CCC(N2C(=O)c3ccc(N[C@H]4C[C@@H](Oc5ccc(C6(c7ccc(OCc8ccnc(N9CC%10(COC%10)C9)n8)cc7)CCCC6)cc5)C4)cc3C2=O)C(=O)N1 (stereo partly drawn) [Example 361, 5-(((1s,3s)-3-(4-(1-(4-((2-(2-oxa-6-azaspiro[3.3]heptane-6-yl)pyrimidin-4-yl)methoxy)phenyl)cyclopentyl)phenoxy)cyclobutyl)amino)-2-(2,6-dioxopiperidin-3-yl)isoindolin-1,3-dione]	< 10	1000 to 5000	8
O=C1CCC(N2C(=O)c3ccc(N[C@H]4C[C@H](Oc5ccc(S(=O)(=O)c6ccc(OCc7ccnc(N8CC9(COC9)C8)n7)cc6)cc5)C4)cc3C2=O)C(=O)N1 (stereo partly drawn) [Example 362, 5-(((1r,3r)-3-(4-((4-((2-(2-oxa-6-azaspiro[3.3]heptane-6-yl)pyrimidin-4-yl)methoxy)phenyl)sulfonyl)phenoxy)cyclobutyl)amino)-2-(2,6-dioxopiperidin-3-yl)isoindolin-1,3-dione]	< 10	100 to 1000	20
C=CC(c1ccc(OCc2ccnc(N3CC4(COC4)C3)n2)cc1)c1ccc(O[C@H]2C[C@H](Nc3ccc4c(c3)C(=O)N(C3CCC(=O)NC3=O)C4=O)C2)cc1 (stereo partly drawn) [Example 367]	< 10	1000 to 5000	8
C=CC(c1ccc(Oc2ccc(-n3nccn3)nn2)cc1)c1ccc(O[C@H]2C[C@H](Nc3ccc4c(c3)C(=O)N(C3CCC(=O)NC3=O)C4=O)C2)cc1 (stereo partly drawn) [Example 371, 5-(((1r,3r)-3-(4-(1-(4-((6-(2H-1,2,3-triazole-2-yl)pyridazine-3-yl)oxy)phenyl)allyl)phenoxy)cyclobutyl)amino)-2-(2,6-dioxopiperidin-3-yl)isoindolin-1,3-dione]	< 10	5000 to 30000	9
C=CC(c1ccc(Oc2cnc(-n3nccn3)nc2)cc1)c1ccc(O[C@H]2C[C@H](Nc3ccc4c(c3)C(=O)N(C3CCC(=O)NC3=O)C4=O)C2)cc1 (stereo partly drawn) [Example 372, 5-(((1r,3r)-3-(4-(1-(4-((2-(2H-1,2,3-triazole-2-yl)pyrimidin-5-yl)oxy)phenyl)allyl)phenoxy)cyclobutyl)amino)-2-(2,6-dioxopiperidin-3-yl)isoindolin-1,3-dione]	< 10	5000 to 30000	8
C=CC(c1ccc(Oc2cnc(-c3nnc(C)o3)nc2)cc1)c1ccc(O[C@H]2C[C@H](Nc3ccc4c(c3)C(=O)N(C3CCC(=O)NC3=O)C4=O)C2)cc1 (stereo partly drawn) [Example 373, 2-(2,6-dioxopiperidin-3-yl)-5-(((1r,3r)-3-(4-(1-(4-((2-(5-methyl-1,3,4-oxadiazol-2-yl)pyrimidin-5-yl)oxy)phenyl)allyl)phenoxy)cyclobutyl)amino)isoindolin-1,3-dione]	< 10	5000 to 30000	13
CC(O)c1ncc(Oc2ccc(C3(c4ccc(O[C@H]5C[C@H](Nc6ccc7c(c6)C(=O)N(C6CCC(=O)NC6=O)C7=O)C5)cc4)CC3)cc2)cn1 (stereo partly drawn) [Example 377, 2-(2,6-dioxopiperidin-3-yl)-5-(((1r,3r)-3-(4-(1-(4-((2-(1-hydroxylethyl)pyrimidin-5-yl)oxy)phenyl)cyclopropyl)phenoxy)cyclobutyl)amino)isoindolin-1,3-dione]	< 10	5000 to 30000	12
CC(C)(c1ccc(CN2CC(Nc3ccc4c(c3)C(=O)N(C3CCC(=O)NC3=O)C4=O)C2)cc1)c1ccc(OCc2ccnc(N3CC4(COC4)C3)n2)cc1 (stereo not drawn) [Example 502]	< 10	1000 to 5000	12

Continued, values first:

DC50 [1] [nM]	AUC(0-inf) [2] [ng·h/mL]	IC50 (22RV1 cells) [nM]	Compound
< 10	5000 to 30000	3	Cc1nnc(-c2cccc(Oc3ccc(C(C)(C)c4ccc(O[C@H]5C[C@H](Nc6ccc7c(c6)C(=O)N(C6CCC(=O)NC6=O)C7=O)C5)cc4)cc3)n2)o1 (stereo partly drawn) [Example 423]
< 10	1000 to 5000	7	Cc1noc(-c2nccc(Oc3ccc(C(C)(C)c4ccc(O[C@H]5C[C@H](Nc6ccc7c(c6)C(=O)N(C6CCC(=O)NC6=O)C7=O)C5)cc4)cc3)n2)n1 (stereo partly drawn) [Example 426]
11 to 100	5000 to 30000	9	CC(C)(c1ccc(OCc2ccnc(-n3nccn3)n2)cc1)c1ccc(O[C@H]2C[C@@H](Nc3ccc4c(c3)C(=O)N(C3CCC(=O)NC3=O)C4=O)C2)cc1 (stereo partly drawn) [Example 446, 5-(((1s,3s)-3-(4-(2-(4-((2-(2H-1,2,3-triazol-2-yl)pyrimidin-4-yl)methoxy)phenyl)propan-2-yl)phenoxy)cyclobutyl)amino)-2-(2,6-dioxopiperidin-3-yl)isoindolin-1,3-dione]
< 10	1000 to 5000	5	CC1(O)CN(c2nccc(COc3ccc(C(C)(C)c4ccc(O[C@H]5C[C@@H](Nc6ccc7c(c6)C(=O)N(C6CCC(=O)NC6=O)C7=O)C5)cc4)cc3)n2)C1 (stereo partly drawn) [Example 455]
< 10	5000 to 30000	12	CN(C)[C@@H]1CCN(c2nccc(COc3ccc(C(C)(C)c4ccc(O[C@H]5C[C@@H](Nc6ccc7c(c6)C(=O)N(C6CCC(=O)NC6=O)C7=O)C5)cc4)cc3)n2)C1 (stereo partly drawn) [Example 456]
< 10	100 to 1000	4	CC(C)(c1ccc(OCc2ccnc(-c3nnco3)n2)cc1)c1ccc(O[C@H]2C[C@@H](Nc3ccc4c(c3)C(=O)N(C3CCC(=O)NC3=O)C4=O)C2)cc1 (stereo partly drawn) [Example 464, 5-(((1s,3s)-3-(4-(2-(4-((2-(1,3,4-oxadiazol-2-yl)pyrimidin-4-yl)methoxy)phenyl)propan-2-yl)phenoxy)cyclobutyl)amino)-2-(2,6-dioxopiperidin-3-yl)isoindolin-1,3-dione]
< 10	5000 to 30000	2	Cc1nnc(-c2ncc(Oc3ccc(C4(c5ccc(O[C@H]6C[C@H](Nc7ccc8c(c7)C(=O)N(C7CCC(=O)NC7=O)C8=O)C6)cc5)CCCC4)cc3)cn2)o1 (stereo partly drawn) [Example 483]
< 10	1000 to 5000	10	CC(C)(c1ccc(Oc2cc(F)cnc2-n2ccnn2)cc1)c1ccc(O[C@H]2C[C@H](Nc3ccc4c(c3)C(=O)N(C3CCC(=O)NC3=O)C4=O)C2)cc1 (stereo partly drawn) [Example 516]
< 10	5000 to 30000	2	CC(O)c1ncc(Oc2ccc(C3(c4ccc(O[C@H]5C[C@H](Nc6ccc7c(c6)C(=O)N(C6CCC(=O)NC6=O)C7=O)C5)cc4)CCCCC3)cc2)cn1 (stereo partly drawn) [Example 528]
< 10	5000 to 30000	15	CCC(CC)(c1ccc(Oc2cnc(-c3noc(C)n3)nc2)cc1)c1ccc(O[C@H]2C[C@@H](Nc3ccc4c(c3)C(=O)N(C3CCC(=O)NC3=O)C4=O)C2)cc1 (stereo partly drawn) [Example 553]
